Results on two molecules are retold here after patent publication US12144808B2, “Compositions and methods” (INTRA-CELLULAR THERAPIES, INC., priority 2018, dated 2024).

Bounds are passed on as bounds.

One data set in a line: oral bioavailability. The settings on record: in vivo.
Data set [1] can be described thus: Example 1A: pharmacokinetics of subcutaneous (SC) and sublingual (SL) dosing in dogs. The format is in vivo. As to conditions: male, beagle, dog, 1 mg/kg, tosylate salt, plasma; for AUC: 0-24 hours. The method, then:
SC Administration: Six male beagle dogs between 2 and 5 years of age are randomized in two groups of three dogs each. […] Dogs in group 2 are administered the Compound of Formula II at a dose of 1 mg/kg (free base equivalent) in a 0.5% methylcellulose/distilled water vehicle. Administration is subcutaneous in the intrascapular region via a 22 or 23 gauge needle. Whole blood samples are collected via the dog's cephalic vein pre-dose, and at post-dose time-points 5, 15 and 30 minutes, 1, 2, 4, 6, 8 and 24 hours. Following a minimum 7-day washout period, the dogs are transferred to the sublingual portion of the study.
Dogs in group 2 are administered the Compound of Formula II at a dose of 1 mg/kg (free base equivalent) in a 0.5% methylcellulose/distilled water vehicle. The animals are anesthetized prior to administration of the dose using propofol (6 mg/kg) and anesthesia is maintained for 30 minutes using 3-4.5% isoflurane. Administration is sublingual and the dosage is applied for 30 minutes, then wiped off using unwoven gauze. Whole blood samples are collected via the dog's cephalic vein pre-dose, and at post-dose time-points 5, 15 and 30 minutes, 1, 2, 4, 6, 8, 24, 36 and 48 hours.
All blood samples are processed to plasma and analyzed for drug concentrations using liquid chromatography-tandem mass spectrometry (LC-MS/MS). Area under the curve (AUC) of parent and metabolites based on plasma versus time data are calculated using Prism 5.04 software (GraphPad Software, Inc.).

Data set [2] can be described thus: Example 1B: SC and SL pharmacokinetics in dogs with metabolite analysis. The format is in vivo. The settings on record: male, beagle, dog, 1 mg/kg, plasma, analyte parent; for AUC: 0-24 hours. As for the experimental part:
SC Administration: Six male beagle dogs between 2 and 5 years of age are randomized in two groups of three dogs each. […] Administration is subcutaneous in the intrascapular region via a 22 or 23 gauge needle. […] Following a minimum 7-day washout period, the dogs are transferred to the sublingual portion of the study. SL Administration: […] The animals are anesthetized prior to administration of the dose using propofol (6 mg/kg) and anesthesia is maintained for 30 minutes using 3-4.5% isoflurane. Administration is sublingual and the dosage is applied for 30 minutes, then wiped off using unwoven gauze. […] All blood samples are processed to plasma and analyzed for drug concentrations using liquid chromatography-tandem mass spectrometry (LC-MS/MS). Area under the curve (AUC) of parent and metabolites based on plasma versus time data are calculated using Prism 5.04 software (GraphPad Software, Inc.). A second study is performed substantially as described for Example 1A, except that plasma samples are analyzed for the parent (administered) compounds, as well as for the major known metabolites. […] The results are summarized in Table 1B below (AUC is shown for 0-24 hours): […]

Data set [3] in a line: Example 2: pharmacokinetics of oral dosing in dogs. The format is in vivo. The settings on record: both sexes, beagle, dog, plasma, oral capsules, tosylate salt; for AUC: 0-24 hours. As for the experimental part:
For control, the dogs are administered empty capsules. For the Compound of Formula I, the dogs are administered normal-release oral capsules. Blood samples are obtained at 0.25 hours, 0.5 hours, 1 hour, 4 hours, 8 hour and 24 hours. […] Cmax, Tmax and area-under-the-curve (AUC, 0-24 hours) are calculated using Phoenix WinNonlin software.

Data set [4] in a line: Example 3: pharmacokinetics of SC and IV dosing in monkeys. As to conditions: cynomolgus monkey, 0.5 mg/kg, plasma; for AUC: read-out: AUC, Parent Compound; for Cmax: read-out: Cmax, Parent Compound; for Tmax: read-out: Tmax, Parent Compound. The format is in vivo. As for the experimental part: Six Cynomolgus monkeys are divided into two groups for IV and SC dosing with the Compound of Formula I. The animals are dosed in a fasting state. Blood samples are collected pre-dose, and at 5 minutes, 15 minutes, 1, 2, 4, 6, 8, 24, 36 and 48 hours post-dose. All blood samples are processed to plasma and later analyzed by liquid chromatography-tandem mass spectrometry. […] PK parameters are calculated using PK Solutions 2.0 software (Summit Research Services, Colorado, US).

Data set [5] addresses H1 histaminergic receptors (Homo sapiens, UniProt P35367). As to conditions: cited from earlier work.
Another data set has as its target T1, 5-HT2C receptors (Homo sapiens, UniProt P28335).
T1 sequence (P28335 33-458): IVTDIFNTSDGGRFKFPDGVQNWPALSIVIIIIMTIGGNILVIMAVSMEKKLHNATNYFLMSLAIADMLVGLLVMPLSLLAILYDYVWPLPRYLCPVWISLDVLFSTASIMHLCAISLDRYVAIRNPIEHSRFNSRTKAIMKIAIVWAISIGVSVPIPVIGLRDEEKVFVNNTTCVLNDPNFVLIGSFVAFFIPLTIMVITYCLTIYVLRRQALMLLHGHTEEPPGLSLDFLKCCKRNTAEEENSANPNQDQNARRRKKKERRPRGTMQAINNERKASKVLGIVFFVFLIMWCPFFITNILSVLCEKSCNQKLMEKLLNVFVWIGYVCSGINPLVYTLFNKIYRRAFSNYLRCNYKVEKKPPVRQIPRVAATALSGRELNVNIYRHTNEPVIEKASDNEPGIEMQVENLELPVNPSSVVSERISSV
As to conditions: cited from earlier work.

The subject of the next data set is muscarinic receptors. The settings on record: cited from earlier work.

The term bioavailability denotes the share of a dose that reaches the circulation, judged against a reference dose that is usually intravenous. In general, Cmax refers to the maximum level reached in the sampled fluid or tissue. One may read the Tmax as the time at which the peak concentration occurs. Usually AUC stands for the area under the concentration-time curve, a measure of exposure.

Chain of H1 histaminergic receptors (P35367 whole entry): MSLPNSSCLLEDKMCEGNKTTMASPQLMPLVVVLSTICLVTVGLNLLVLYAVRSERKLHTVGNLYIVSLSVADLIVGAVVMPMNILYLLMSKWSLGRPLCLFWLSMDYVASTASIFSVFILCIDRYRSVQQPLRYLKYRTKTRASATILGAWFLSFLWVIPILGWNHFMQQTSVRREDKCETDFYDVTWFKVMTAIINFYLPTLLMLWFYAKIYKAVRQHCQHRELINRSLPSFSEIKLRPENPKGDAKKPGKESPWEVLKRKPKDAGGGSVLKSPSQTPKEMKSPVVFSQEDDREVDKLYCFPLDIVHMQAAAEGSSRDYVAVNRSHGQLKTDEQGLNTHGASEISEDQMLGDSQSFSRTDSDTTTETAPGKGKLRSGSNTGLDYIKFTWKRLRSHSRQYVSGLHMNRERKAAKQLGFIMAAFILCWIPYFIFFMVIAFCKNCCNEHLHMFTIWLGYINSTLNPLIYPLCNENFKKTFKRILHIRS

In the case of `CN1CCN2c3c(cccc31)[C@@H]1CN(CCCC(=O)c3ccc(F)cc3)CC[C@@H]12` [Compound of Formula I, 1-(4-fluoro-phenyl)-4-((6bR,10aS)-3-methyl-2,3,6b,9,10,10a-hexahydro-1H,7H-pyrido[3′,4′:4,5]pyrrolo[1,2,3-de]quinoxalin-8-yl)-butan-1-one], the bioavailability in the data set “oral bioavailability” was ≤ 5%; in data set [4] (Cynomolgus, subcutaneous, SC administration, read-out: bioavailability (comparison of IV to SC pharmacokinetics)), ~74%. Moreover, the highest concentration (Cmax) in data set [1] (SC) stood at 110 ng/mL; in data set [1] (SL), 259 ng/mL; in data set [2] (SC) it was 76 ng/mL; in data set [2] (SL), 179 ng/mL; in data set [3] (2.5 mg/kg), 5.51 ng/mL; in data set [3] (5 mg/kg) it was 7.72 ng/mL. The maximum concentration (Cmax) was 29 ng/mL in data set [3] (10 mg/kg); 44.5 ng/mL in data set [3] (15 mg/kg); 23 ng/mL in data set [4] (Cynomolgus, SC); 94 ng/mL in data set [4] (IV). Moreover, the time of peak concentration (Tmax) stood at 1 h in data set [1] (SC); 1 h in data set [1] (SL); 1 h in data set [2] (SC); 1 h in data set [2] (SL); 0.469 h in data set [3] (2.5 mg/kg); 0.875 h in data set [3] (5 mg/kg). Besides, the Tmax in data set [3] (10 mg/kg) is 0.813 h; in data set [3] (15 mg/kg) it was 1.63 h; in data set [4] (Cynomolgus, SC), 2 h; in data set [4] (IV), 0.083 h. Also, the AUC in data set [1] (SC) came to 813 ng·h/mL; in data set [1] (SL), 734 ng·h/mL; in data set [2] (SC), 560 ng·h/mL; in data set [2] (SL), 507 ng·h/mL; in data set [3] (2.5 mg/kg), 40 ng·h/mL; in data set [3] (5 mg/kg), 52.5 ng·h/mL. Moreover, the AUC in data set [3] (10 mg/kg) stood at 142 ng·h/mL; in data set [3] (15 mg/kg) it was 248 ng·h/mL; in data set [4] (Cynomolgus, SC), 220 ng·h/mL; in data set [4] (IV) it was 297 ng·h/mL. In addition, in data set [5], the “binding to H1 histaminergic receptors” value is “negligible binding”. In addition, the “binding to 5-HT2C receptors” value on 5-HT2C receptors is on record as “negligible binding”. The “binding to muscarinic receptors” value in the data set on muscarinic receptors was “negligible binding”.

Regarding `[2H]C1([2H])CN2c3c(cccc3N1C)[C@@H]1CN(CCCC(=O)c3ccc(F)cc3)CC[C@@H]12` [Compound of Formula II, 1-(4-fluoro-phenyl)-4-((6bR,10aS)-2,2-d2-3-methyl-2,3,6b,9,10,10a-hexahydro-1H,7H-pyrido[3′,4′:4,5]pyrrolo[1,2,3-de]quinoxalin-8-yl)-butan-1-one], the Cmax came out at 79 ng/mL in data set [1] (SC), 562 ng/mL in data set [1] (SL), 79 ng/mL in data set [2] (SC) and 562 ng/mL in data set [2] (SL). Moreover, the Tmax in data set [1] (SC), in data set [1] (SL), in data set [2] (SC) and in data set [2] (SL) was 1 h in each case. For the same molecule, the exposure (AUC) was 785 ng·h/mL in data set [1] (SC), 1260 ng·h/mL in data set [1] (SL), 785 ng·h/mL in data set [2] (SC) and 1260 ng·h/mL in data set [2] (SL).
